{"source": "paper PMC11012124", "about": "“Synthesis of Novel Triazine-Based Chalcones and 8,9-dihydro-7H-pyrimido[4,5-b][1,4]diazepines as Potential Leads in the Search of Anticancer, Antibacterial and Antifungal Agents” (International Journal of Molecular Sciences, 2024)", "origin": "cited, not measured here", "parameters_in_all_cases": "method as in earlier work", "conditions_in_all_cases": "ref https://dtp.cancer.gov/dtpstandard/cancerscreeningdata/index.jsp, read-out: GI50 5-FU (NS 18893); cited from earlier work", "key": {"[1]": {"test_system": "SW-620"}, "[2]": {"test_system": "RPMI-8226"}, "[3]": {"test_system": "SF-539"}, "[4]": {"test_system": "HL-60(TB)"}, "[5]": {"test_system": "RXF 393"}, "[6]": {"test_system": "HCC-2998"}, "[7]": {"test_system": "SR"}, "[8]": {"test_system": "IGROV1"}, "[9]": {"test_system": "HOP-92"}, "[10]": {"test_system": "U251"}, "[11]": {"test_system": "OVCAR-3"}, "[12]": {"test_system": "HCT-116"}, "[13]": {"test_system": "MCF7"}, "[14]": {"test_system": "MOLT-4"}, "[15]": {"test_system": "SNB-75"}, "[16]": {"test_system": "KM12"}, "[17]": {"test_system": "LOX IMVI"}, "[18]": {"test_system": "UO-31"}, "[19]": {"test_system": "MDA-MB-468"}, "[20]": {"test_system": "NCI-H522"}, "[21]": {"test_system": "SN12C"}, "[22]": {"test_system": "CAKI-1"}, "[23]": {"test_system": "K-562"}, "[24]": {"test_system": "HCT-15"}, "[25]": {"test_system": "CCRF-CEM"}, "[26]": {"test_system": "HT29"}}}
{"smiles": "O=c1[nH]cc(F)c(=O)[nH]1", "note": "[5-FU, 5-fluorouracil]", "values": [{"measurement": "GI50", "setting": "[1]", "result": 930, "unit": "nM"}, {"measurement": "GI50", "setting": "[2]", "result": 40, "unit": "nM"}, {"measurement": "GI50", "setting": "[3]", "result": 60, "unit": "nM"}, {"measurement": "GI50", "setting": "[4]", "result": 2510, "unit": "nM"}, {"measurement": "GI50", "setting": "[5]", "result": 2610, "unit": "nM"}, {"measurement": "GI50", "setting": "[6]", "result": 50, "unit": "nM"}, {"measurement": "GI50", "setting": "[7]", "result": 20, "unit": "nM"}, {"measurement": "GI50", "setting": "[8]", "result": 1220, "unit": "nM"}, {"measurement": "GI50", "setting": "[9]", "result": 78000, "unit": "nM"}, {"measurement": "GI50", "setting": "[10]", "result": 910, "unit": "nM"}, {"measurement": "GI50", "setting": "[11]", "result": 20, "unit": "nM"}, {"measurement": "GI50", "setting": "[12]", "result": 230, "unit": "nM"}, {"measurement": "GI50", "setting": "[13]", "result": 80, "unit": "nM"}, {"measurement": "GI50", "setting": "[14]", "result": 350, "unit": "nM"}, {"measurement": "GI50", "setting": "[15]", "result": 78700, "unit": "nM"}, {"measurement": "GI50", "setting": "[16]", "result": 210, "unit": "nM"}, {"measurement": "GI50", "setting": "[17]", "result": 250, "unit": "nM"}, {"measurement": "GI50", "setting": "[18]", "result": 1430, "unit": "nM"}, {"measurement": "GI50", "setting": "[19]", "result": 6610, "unit": "nM"}, {"measurement": "GI50", "setting": "[20]", "result": 7280, "unit": "nM"}, {"measurement": "GI50", "setting": "[21]", "result": 500, "unit": "nM"}, {"measurement": "GI50", "setting": "[22]", "result": 70, "unit": "nM"}, {"measurement": "GI50", "setting": "[23]", "result": 3580, "unit": "nM"}, {"measurement": "GI50", "setting": "[24]", "result": 110, "unit": "nM"}, {"measurement": "GI50", "setting": "[25]", "result": 9790, "unit": "nM"}, {"measurement": "GI50", "setting": "[26]", "result": 180, "unit": "nM"}]}
